Measurements as given in patent US5462935A, “Cephalosporin compounds” (Lucky Limited, priority 1990, dated 1995).
Values after ≈ are worked out from the molar mass of the structure shown.

Legend:
[1] = test system: Staphylococcus epidermidis ATCC 10537; assay: minimal inhibitory concentration, two-fold agar dilution; type: cell-based; conditions: ATCC10537, Muller-Hinton agar, 37° C., 20 hours
Procedure: (§1) These NIC values were taken by employing a two-fold dilution method: that is, two-fold serial dilutions of each of the test compounds were made and dispersed in a Muller-Hinton agar medium; 2 μl of the standard test strain which had the 10^7 CFU (Colony Forming Unit) per ml was inoculated on the medium; and these were incubated at 37° C. for 20 hours.

[2] = test system: Enterobacter cloacae ATCC 27508; assay: as above; type: cell-based; conditions: ATCC27508, Muller-Hinton agar, 37° C., 20 hours
Procedure: as §1

[3] = test system: Pseudomonas aeruginosa ATCC 25619; assay: as above; type: cell-based; conditions: ATCC25619, Muller-Hinton agar, 37° C., 20 hours
Procedure: as §1

ATCC 12228 = assay: as above; type: cell-based; conditions: Staphylococcus faecalis, ATCC12228, 20 h
Procedure: as §1

[4] = test system: Bacillus megaterium ATCC 9885; assay: as above; type: cell-based; conditions: Priestia megaterium, ATCC9885, 20 h
Procedure: as §1

[5] = test system: Acinetobacter calcoaceticus ATCC 15473; assay: as above; type: cell-based; conditions: ATCC15473, Muller-Hinton agar, 37° C., 20 hours
Procedure: as §1

[6] = test system: Staphylococcus aureus ATCC 6638p; assay: as above; type: cell-based; conditions: ATCC6638P, 20 h
Procedure: as §1

[7] = test system: Serratia marcescens ATCC 27117; assay: as above; type: cell-based; conditions: ATCC27117, Muller-Hinton agar, 37° C., 20 hours
Procedure: as §1

[8] = test system: Shigella flexneri ATCC 11836; assay: as above; type: cell-based; conditions: ATCC11836, Muller-Hinton agar, 37° C., 20 hours
Procedure: as §1

[9] = test system: Salmonella typhimurium ATCC 14028; assay: as above; type: cell-based; conditions: Salmonella enterica, Muller-Hinton agar, 37° C., 20 hours
Procedure: as §1

[10] = test system: Micrococcus luteus ATCC 9341; assay: as above; type: cell-based; conditions: ATCC9341, Muller-Hinton agar, 37° C., 20 hours
Procedure: as §1

[11] = test system: Proteus vulgaris ATCC 6059; assay: as above; type: cell-based; conditions: ATCC6059, Muller-Hinton agar, 37° C., 20 hours
Procedure: as §1

[12] = test system: Pseudomonas aerugionsa ATCC 10145; assay: as above; type: cell-based; conditions: ATCC10145, Muller-Hinton agar, 37° C., 20 hours
Procedure: as §1

[13] = test system: Shigella sonnei ATCC 11060; assay: as above; type: cell-based; conditions: ATCC11060, Muller-Hinton agar, 37° C., 20 hours
Procedure: as §1

[14] = test system: Bacillus cereus ATCC 11778; assay: as above; type: cell-based; conditions: Bacillus cereus, ATCC11778, 20 h
Procedure: as §1

[15] = test system: Morganella morganii ATCC 8076h; assay: as above; type: cell-based; conditions: ATCC8076H, 20 h
Procedure: as §1

[16] = test system: Klebsiella pneumoniae ATCC 10031; assay: as above; type: cell-based; conditions: ATCC10031, Muller-Hinton agar, 37° C., 20 hours
Procedure: as §1

[17] = test system: Citrobacter freundii ATCC 8090; assay: as above; type: cell-based; conditions: ATCC8090, Muller-Hinton agar, 37° C., 20 hours
Procedure: as §1

[18] = test system: Pseudomonas aerugionsa ATCC 27853; assay: as above; type: cell-based; conditions: ATCC27853, Muller-Hinton agar, 37° C., 20 hours
Procedure: as §1

[19] = test system: Streptococcus faecalis ATCC 29212; assay: as above; type: cell-based; conditions: Enterococcus faecalis, ATCC29212, Muller-Hinton agar, 37° C., 20 hours
Procedure: as §1

[20] = test system: Proteus mirabilis ATCC 25933; assay: as above; type: cell-based; conditions: ATCC25933, Muller-Hinton agar, 37° C., 20 hours
Procedure: as §1

[21] = test system: Enterobacter aerogenes ATCC 29751; assay: as above; type: cell-based; conditions: Klebsiella aerogenes, ATCC29751, 20 h
Procedure: as §1

[22] = in vivo absorbency test (plasma concentration, pharmacokinetic parameters); design: species or system SD rats (male); conditions: rat, in vivo, iv, 20 mg/kg
Procedure: In addition to the in vitro tests described above, in vivo absorbency tests for the two selected compounds of formulas (I-S-1) and (I-R-1), along with Ceftadizime, were carried out by administering intravenously, in a dose of 20 mg/kg, each of these two compounds into SD rats (male) weighing 220 to 340 g; […], which were analyzed by employing the bio-assay or agar well method. About 10 to 15 rats were used for each of the compounds.
Notes: (1) Two-Compartment Model
(3) Tested Animal: Rats(male; 220-340 g)

[23] = test system: Providencia rettgeri ATCC 9250; assay: minimal inhibitory concentration, two-fold agar dilution; type: cell-based; conditions: ATCC9250, Muller-Hinton agar, 37° C., 20 hours
Procedure: as §1

[24] = test system: Escherichia coli ATCC 25922; assay: as above; type: cell-based; conditions: ATCC25922, Muller-Hinton agar, 37° C., 20 hours
Procedure: as §1

[25] = test system: Escherichia coli ATCC 10536; assay: as above; type: cell-based; conditions: ATCC10536, Muller-Hinton agar, 37° C., 20 hours
Procedure: as §1

[26] = acute toxicity test, intravenous; conditions: mouse, in vivo, ICR mice, observed for 14 days
From the text: The results are shown in the last row of Table 2.

Structure (SMILES) | MIC [1] [µg/mL] | MIC [2] [µg/mL] | MIC [3] [µg/mL] | MIC (ATCC 12228) [µg/mL] | MIC [4] [µg/mL] | MIC [5] [µg/mL] | MIC [6] [µg/mL] | MIC [7] [µg/mL] | MIC [8] [µg/mL] | MIC [9] [µg/mL] | MIC [10] [µg/mL] | MIC [11] [µg/mL] | MIC [12] [µg/mL] | MIC [13] [µg/mL] | MIC [14] [µg/mL] | MIC [15] [µg/mL] | MIC [16] [µg/mL] | MIC [17] [µg/mL] | MIC [18] [µg/mL] | MIC [19] [µg/mL] | also measured
CC(C)(O/N=C(\C(=O)N[C@@H]1C(=O)N2C(C(=O)[O-])=C(C[n+]3ccccc3)CS[C@H]12)c1csc(N)n1)C(=O)O [CTZ, Ceftazidime, reference compound] | 8 (≈ 14.6 µM) | 0.031 (≈ 0.0567 µM) | 1 (≈ 1.83 µM) | 4 (≈ 7.32 µM) | 0.25 (≈ 0.457 µM) | 4 (≈ 7.32 µM) | 16 (≈ 29.3 µM) | 0.25 (≈ 0.457 µM) | 0.063 (≈ 0.115 µM) | 0.25 (≈ 0.457 µM) | 0.5 (≈ 0.915 µM) | 0.063 (≈ 0.115 µM) | 2 (≈ 3.66 µM) | 0.13 (≈ 0.238 µM) | 128 (≈ 234 µM) | ≤ 0.008 | 0.063 (≈ 0.115 µM) | 0.13 (≈ 0.238 µM) | 1 (≈ 1.83 µM) | > 128 | MIC [20]: 0.063 µg/mL (≈ 0.115 µM); MIC [21]: 4 µg/mL (≈ 7.32 µM); AUC [22]: 28100 ng·h/mL; concentration at 10 min [22]: 50000 ng/mL
C[C@@H](O/N=C(\C(=O)NC1C(=O)N2C(C(=O)[O-])=C(CSc3nc(N)cc(N)[n+]3C)CS[C@H]12)c1csc(N)n1)C(=O)O (stereo partly drawn) [I-R-2, 7-[(Z)-2-(2-aminothiazol-4-yl)-2-[(R)-1-carboxyeth-1-oxyimino]acetamido]-3-[(4,6-diamino-1-methylpyrimidinium-2-yl)thiomethyl]-3-cephem-4-carboxylate] | 2 (≈ 3.28 µM) | 0.016 (≈ 0.0262 µM) | 2 (≈ 3.28 µM) | 2 (≈ 3.28 µM) | 1 (≈ 1.64 µM) | 4 (≈ 6.56 µM) | 4 (≈ 6.56 µM) | 0.063 (≈ 0.103 µM) | 0.031 (≈ 0.0508 µM) | 0.13 (≈ 0.213 µM) | 0.5 (≈ 0.82 µM) | 0.031 (≈ 0.0508 µM) | 2 (≈ 3.28 µM) | 0.031 (≈ 0.0508 µM) | > 128 | ≤ 0.008 | 0.031 (≈ 0.0508 µM) | 0.063 (≈ 0.103 µM) | 1 (≈ 1.64 µM) | > 128 | MIC [23]: ≤ 0.008 µg/mL; MIC [24]: 0.031 µg/mL (≈ 0.0508 µM); MIC [25]: 0.063 µg/mL (≈ 0.103 µM); MIC [20]: 0.031 µg/mL (≈ 0.0508 µM); MIC [21]: 1 µg/mL (≈ 1.64 µM); LD50 at 336 h [26]: > 3000 mg/kg
CC[n+]1c(N)cc(N)nc1SCC1=C(C(=O)[O-])N2C(=O)C(NC(=O)/C(=N\O[C@H](C)C(=O)O)c3csc(N)n3)[C@H]2SC1 (stereo partly drawn) [I-R-3, 7-[(Z)-2-(2-aminothiazol-4-yl)-2-[(R)-1-carboxyeth-1-oxyimino]acetamido]-3-[(4,6-diamino-1-ethylpyrimidinium-2-yl)thiomethyl]-3-cephem-4-carboxylate] | 2 (≈ 3.21 µM) | 0.016 (≈ 0.0257 µM) | 1 (≈ 1.6 µM) | 1 (≈ 1.6 µM) | 1 (≈ 1.6 µM) | 4 (≈ 6.41 µM) | 2 (≈ 3.21 µM) | 0.063 (≈ 0.101 µM) | 0.031 (≈ 0.0497 µM) | 0.13 (≈ 0.208 µM) | 0.25 (≈ 0.401 µM) | 0.031 (≈ 0.0497 µM) | 2 (≈ 3.21 µM) | 0.031 (≈ 0.0497 µM) | 128 (≈ 205 µM) | ≤ 0.008 | 0.031 (≈ 0.0497 µM) | 0.063 (≈ 0.101 µM) | 1 (≈ 1.6 µM) | > 128 | MIC [23]: ≤ 0.008 µg/mL; MIC [24]: 0.063 µg/mL (≈ 0.101 µM); MIC [25]: 0.063 µg/mL (≈ 0.101 µM); MIC [20]: 0.031 µg/mL (≈ 0.0497 µM); MIC [21]: 0.5 µg/mL (≈ 0.802 µM); LD50 at 336 h [26]: > 3000 mg/kg
